Values quoted from earlier work as cited in US6759200B1, “Thymidine phosphorylase gene sequence variances having utility in determining the treatment of disease” (Nuvelo, Inc., priority 1998, dated 2004).
Counter-ions that a name gives are not always drawn. Like-named read-outs stand apart in the source and are kept apart here. One block for each compound: values may come before it.

Key:
[1] = test system: advanced colorectal cancer
[2] = up to; depending on the regimen
[3] = target: T1, dihydropyrimidine dehydrogenase (DPD) (Homo sapiens, UniProt Q12882)
T1 construct: host or cells: human subjects in vivo (endogenous enzyme)
T1 sequence (Q12882 4-1025): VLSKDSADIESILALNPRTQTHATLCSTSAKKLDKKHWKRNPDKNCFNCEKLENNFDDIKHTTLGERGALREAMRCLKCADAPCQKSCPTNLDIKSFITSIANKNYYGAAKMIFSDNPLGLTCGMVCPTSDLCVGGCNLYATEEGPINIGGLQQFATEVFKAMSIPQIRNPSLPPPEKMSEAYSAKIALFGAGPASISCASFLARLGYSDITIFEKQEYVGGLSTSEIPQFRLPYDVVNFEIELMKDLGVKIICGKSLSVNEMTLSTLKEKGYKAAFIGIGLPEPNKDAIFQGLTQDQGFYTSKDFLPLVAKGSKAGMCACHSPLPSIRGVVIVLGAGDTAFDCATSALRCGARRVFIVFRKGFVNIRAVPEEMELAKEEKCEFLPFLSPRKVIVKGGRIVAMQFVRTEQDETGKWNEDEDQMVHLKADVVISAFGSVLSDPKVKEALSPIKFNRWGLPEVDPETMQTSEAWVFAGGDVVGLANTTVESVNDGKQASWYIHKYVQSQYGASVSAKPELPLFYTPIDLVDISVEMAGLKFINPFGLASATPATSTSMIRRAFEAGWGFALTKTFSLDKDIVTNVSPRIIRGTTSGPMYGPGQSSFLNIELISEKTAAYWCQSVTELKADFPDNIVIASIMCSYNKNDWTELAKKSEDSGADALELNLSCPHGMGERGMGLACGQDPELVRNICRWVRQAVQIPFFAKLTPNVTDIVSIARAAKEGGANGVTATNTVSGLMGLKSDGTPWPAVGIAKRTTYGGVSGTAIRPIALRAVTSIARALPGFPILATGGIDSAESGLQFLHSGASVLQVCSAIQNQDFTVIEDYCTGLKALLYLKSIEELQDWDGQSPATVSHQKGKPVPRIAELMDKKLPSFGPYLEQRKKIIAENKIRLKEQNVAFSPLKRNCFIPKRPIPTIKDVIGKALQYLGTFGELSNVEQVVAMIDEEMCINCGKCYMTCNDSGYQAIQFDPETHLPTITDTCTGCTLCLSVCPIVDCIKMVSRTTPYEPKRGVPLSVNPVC

Alzheimer's disease = settings: PDR
nucleoside transport = nucleoside transport inhibitor paired with 5-FU and FA; Kohne et al. 1995
[4] = people genetically deficient in DPD, Diasio et al. 1988
[5] = Alzheimer's patients receiving Cognex

dose of 5-FU transformed (catabolized) by DPD to the inactive dihydrofluorouracil form ([3]; in vivo): more than 80%
injected dose rapidly inactivated by DPD to therapeutically inactive catabolic products ([3]; injected dose): More than 85%
dose excreted unchanged in the urine (normal individuals): 10%
elimination half life (normal individuals): 0.167 to 0.25 h
dose excreted unchanged in the urine [4]: 90%
elimination half life [4]: 2.5 h
SMILES: O=c1[nH]cc(F)c(=O)[nH]1 [5-FU, 5-fluorouracil]
partial remissions ([1]; 5-FU alone, advanced colorectal cancers): 10-30%
patients with an objective response ([1]; advanced colorectal cancer): 20-40%
patients with a complete response (complete tumor disappearance) ([1]; advanced colorectal cancer, of the objective responders): 1-5%
patients suffering serious gastrointestinal or hematopoietic toxicity [2]: 20-30%

SMILES: Nc1c2c(nc3ccccc13)CCCC2 [Cognex, tacrine hydrochloride]
patients showing no change or minimal worsening of their disease (Alzheimer's disease; Alzheimer's disease patients receiving Cognex): about 45%
patients minimally improved (Alzheimer's disease; [5]): About 58%
patients much improved (Alzheimer's disease; [5]): about 2%

SMILES: O=c1ccn([C@@H]2O[C@H](COP(=O)(O)OP(=O)(O)OP(=O)(O)O)[C@@H](O)[C@H]2O)c(=O)[nH]1 [Uridine triphosphate]
release of thromboxane A2 (cultured glial cells): concentration-dependent increases

SMILES: Nc1ccn([C@@H]2O[C@H](COP(=O)(O)OP(=O)(O)OP(=O)(O)O)[C@@H](O)[C@H]2O)c(=O)n1 [cytidine triphosphate]
release of thromboxane A2 (cultured glial cells): concentration-dependent increases

SMILES: Cc1cn([C@H]2C[C@H](O)[C@@H](COP(=O)(O)OP(=O)(O)OP(=O)(O)O)O2)c(=O)[nH]c1=O [deoxythymidine triphosphate]
release of thromboxane A2 (cultured glial cells): concentration-dependent increases

SMILES: OCCN(CCO)c1nc(N2CCCCC2)c2nc(N(CCO)CCO)nc(N3CCCCC3)c2n1 [dipyridamole]
outcome compared to 5-FU/FA alone (nucleoside transport): failed to show a difference in outcome

SMILES: O=c1ccn([C@@H]2O[C@H](COP(=O)(O)OP(=O)(O)O)[C@@H](O)[C@H]2O)c(=O)[nH]1 [uridine diphosphate]
release of thromboxane A2 (cultured glial cells): concentration-dependent increases
